Test results reported in paper PMC3419725, “A Small Molecule Agonist of EphA2 Receptor Tyrosine Kinase Inhibits Tumor Cell Migration In Vitro and Prostate Cancer Metastasis In Vivo” (PLoS ONE, 2012).

Target: T1, EphA2 (Homo sapiens, UniProt P29317)
T1 construct: Methods: biotinylated extracellular domain (ECD)
Assay: SPR; also receptor activation in cells
Format: binding

T1 sequence (P29317 28-206 limits assumed): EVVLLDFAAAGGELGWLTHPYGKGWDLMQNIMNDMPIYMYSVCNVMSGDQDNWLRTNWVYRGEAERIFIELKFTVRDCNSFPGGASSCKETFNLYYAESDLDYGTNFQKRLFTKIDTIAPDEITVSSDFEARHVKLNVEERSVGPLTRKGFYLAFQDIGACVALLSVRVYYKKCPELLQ

## COc1cc2nc(N3CCN(C(=O)C4COc5ccccc5O4)CC3)nc(N)c2cc1OC (stereo not shown) [compound 11, doxazosin]
  Kd: 47.6 µM
